Results as given in US20110082080A1, “COMPOSITIONS AND METHODS OF USING THE HUMAN PROISLET PEPTIDE RECEPTOR” (CUREDM GROUP HOLDINGS, LLC, priority 2007, published 2011).
Where no end group is shown, it is not given here.

Key:
NOD mice = test: Pilot non obese diabetic (NOD) mouse study with lysophylline (LSF); type: in vivo; conditions: one NOD mouse per group; peptides given plus LSF; not statistically significant study; FIG. 11
From the text: The non obese diabetic (NOD) model is used as a model for type 1 autoimmune diabetes. This form of diabetes is the most challenging in that the underlying damage to the pancreas and its insulin production is due to autoimmune attack. Therefore, in order to show definitive islet neogenesis in this form of diabetes an immune tolerance agent must be used in combination with HIP. The NOD mouse model is extremely difficult model because many of the mice may only transiently become diabetic and go into remission, whereas others develop severe diabetes. The timing intervention in this transgenic mouse model is difficult to determine.
In a preliminary study that utilizing the immune tolerance agent, lysophylline (LSF) under development, three NOD mice that became diabetic and were randomized to placebo plus LSF, HIP2 plus LSF and HIP2B plus LSF.

HIP receptor/EXTL3 = target: T1, HIP receptor/EXTL3 (Homo sapiens, UniProt O43909); test: Cy3 immunofluorescence of HIP receptor/EXTL3 translocation in PANC-1 cells; type: cell-based; conditions: for HIP receptor/EXTL3 trafficking from cytoplasmic membrane to nucleus: trypsin and serum free medium, FIG. 12
T1 construct: It was observed that EXTL3 is expressed in PANC-1 cells; endogenous in cells; host or cells: PANC-1 (human pancreatic ductal/epithelioid cell line)
T1 sequence (O43909 1-919): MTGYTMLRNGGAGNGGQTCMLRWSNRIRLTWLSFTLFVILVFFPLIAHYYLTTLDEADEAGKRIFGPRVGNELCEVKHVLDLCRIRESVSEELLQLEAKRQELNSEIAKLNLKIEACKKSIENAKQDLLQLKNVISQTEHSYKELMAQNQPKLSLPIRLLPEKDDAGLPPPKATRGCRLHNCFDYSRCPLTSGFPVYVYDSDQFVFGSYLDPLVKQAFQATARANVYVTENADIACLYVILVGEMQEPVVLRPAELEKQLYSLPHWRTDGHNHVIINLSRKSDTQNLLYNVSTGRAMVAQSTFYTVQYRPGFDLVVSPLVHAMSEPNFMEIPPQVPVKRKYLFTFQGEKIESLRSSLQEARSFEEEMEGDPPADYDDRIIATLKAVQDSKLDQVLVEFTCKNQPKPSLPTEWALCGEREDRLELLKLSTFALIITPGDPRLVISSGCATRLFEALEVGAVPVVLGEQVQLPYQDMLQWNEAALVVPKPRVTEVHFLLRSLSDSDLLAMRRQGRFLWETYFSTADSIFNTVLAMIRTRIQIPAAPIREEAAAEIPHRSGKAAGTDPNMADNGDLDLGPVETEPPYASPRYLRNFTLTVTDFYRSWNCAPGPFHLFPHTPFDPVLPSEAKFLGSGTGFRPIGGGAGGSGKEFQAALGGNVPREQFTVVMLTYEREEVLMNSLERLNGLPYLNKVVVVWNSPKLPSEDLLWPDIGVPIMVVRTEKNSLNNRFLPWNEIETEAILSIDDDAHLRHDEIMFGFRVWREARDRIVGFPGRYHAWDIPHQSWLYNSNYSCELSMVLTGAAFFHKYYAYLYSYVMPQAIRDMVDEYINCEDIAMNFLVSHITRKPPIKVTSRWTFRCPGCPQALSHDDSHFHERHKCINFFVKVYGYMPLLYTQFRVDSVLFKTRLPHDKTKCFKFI
Protocol: Impact of HIP2B and HIP2 on HIP Receptor. To provide evidence that EXTL3 interacts with HIP, an experiment was conducted where human ductal cell line PANG-1 was used as a source of EXTL3. Using an antibody directed against EXTL3, PANC-1 cells were immunostained after being grown under conditions that differentiate these cells into islet-like cells. PANC-1 cells were grown in a standard growth medium containing 10% fetal bovine serum, or in a serum free medium (SFM) or SFM containing HIP.
The receptor for Human ProIslet Peptide was labeled using a double antibody method in a stable human pancreatic cell line. The first antibody was a rabbit polyclonal and the second was a goat-anti-rabbit labeled with Cy3 fluorescent dye.
These cells grow normally in serum free media and when treated with trypsin, are destabilized and made competent to undergo developmental changes. Cells were cultured in serum free media (SFM) with and without HIP, and in serum free media with trypsin (TSFM).
When treated with HIP under stable conditions, no changes result. When treated with HIP under developmentally competent conditions, the labeled receptor responds to the presence of HIP by being encapsulated by the cytoplasmic membrane and moving to the nuclear membrane where the signals for differentiation are received.
HIP stimulates the receptor membrane bound protein to be engulfed by the cytoplasmic membrane and transported to the nuclear membrane under adjusted exposure.

EXTL3 = target: T2, EXTL3 (Homo sapiens, UniProt O43909); test: Western blot of EXTL3 in cytosolic and nuclear fractions of PANC-1 cells; type: cell-based; conditions: PANC-1 cells in SFM; FIG. 14; without HIP nuclear EXTL3 observed at 6 hours
T2 construct: It was observed that EXTL3 is expressed in PANC-1 cells; endogenous in cells; host or cells: PANC-1 (human pancreatic ductal/epithelioid cell line)
T2 sequence (O43909 1-919): T1 sequence (O43909 1-919)
Protocol: Western blot and immunofluorescence analyses of EXTL3 localization were performed in human PANC-1 cells grown under conditions that differentiate these cells into islet-like cells. EXTL3 is predominantly located on the external surface of the cytoplasmic membrane and its structure includes a single transmembrane region located inside of the cytoplasmic membrane. PANC-1 cells were grown in a standard growth medium or in a serum free medium (SFM) containing HIP.

[1] = system: streptozotcin-treated mice rendered diabetic; test: Repeated study in streptozotocin-treated diabetic mice with HIP2 and Optimized HIP2B; type: in vivo, mouse; conditions: for Total Islet Mass (μm2) / Total Islets: Table 3; for Total Islet Mass (% increase) / Total Islets (% increase): Table 3, vs placebo
From the text: Differences between the two groups of HIP2B and placebo were statistically significant for both an increase in total islet mass (p=0.040) and total islet numbers (p=0.032), with the HIP2B group indicating larger values for both islet mass (M=416714.67, SD=121,389.01) and islet number (M=94, SD=32.74) than for the placebo group (islet mass: M=127410.67, SD=96930.78, islet number: M=31.67, SD=15.28).

[2] = system: ductal fraction of human pancreatic cells; test: HIP2B activity in human pancreatic ductal tissue culture (CK19, nuclei and insulin staining); type: cell-based; conditions: cultured 10 days in collagen matrix, treated every other day; FIG. 10
Protocol: The ductal fraction of human pancreatic cells were cultured for 10 days in a collagen matrix and then treated every other day with HIP2B. Cells were labeled by double antibody staining for CK 19, a marker for ductal tissue, and DAP1 staining to show nuclei and insulin.

PANC-1 cells = test: Impact of HIP and Optimized HIP peptides on PANC-1 cell morphology; type: cell-based, human; conditions: treated four days; for cell morphology changes through 7 days: pictures days 1, 2, 3, 5, 7 at 200×, FIG. 9B
Protocol: The cells were treated with HIP and Optimized HIP peptides for four days. […] FIG. 9B show the progression of the cell morphology changes through 7 days, with the control on the top, HIP2 in the middle, and HIP2B on the bottom. Pictures were taken on days 1, 2, 3, 5, and 7 at 200× magnification.

[3] = system: mice rendered diabetic with streptozotocin; test: Streptozocin diabetic mouse study of HIP3, HIP1, HIP2 and hamster INGAP; type: in vivo; conditions: for total islet numbers vs placebo (significance): FIG. 6, p=0.022; for total islet mass vs placebo (significance): FIG. 6, p=0.05; for Total Islet Mass (μm2) / Total Islets: Table 2, initial study; for Total Islets: histology of pancreata; for Total Islet Mass (% increase) / Total Islets (% increase): Table 2, vs placebo; for islet area: placebo 142,394, p=0.05, FIG. 6
Protocol: In Vivo Studies. HIP3, HIP1, HIP2 and hamster INGAP have been the subject of in vivo studies in mice. […] The subject number was selected to yield a sufficient number of diabetic animals for the study and animals were randomly assigned to study groups. All animals were dosed via intraperitoneal injections twice daily (am and pm) for 28 consecutive days. The timing of dose administration remained consistent (±2 hours) during the dosing phase.
Mice were injected intraperitoneally with streptozocin at 40 mg/kg in citrate buffer, pH 4.5, on 5 consecutive days in an attempt to render them diabetic. […] If the blood glucose level in any animal rose to above 400 mg/dL, the animal was treated with insulin. Every 3 days, at the same time each day, a nick was made on the tail and a drop of blood was collected. Glucose measurements were determined using a glucose meter. Group assignments and dose levels were as follows in Table 1:
Study endpoints included the following: changes in glucose; changes in insulin requirements; and histology of post-mortem pancreata.

[4] = system: human pancreatic ductal tissue; test: Insulin levels by radioimmunoassay in human pancreatic ductal fraction cultures; type: cell-based; conditions: human ductal tissue cultured with peptide; treated day 10 and 12, lysed after 1 week; vs negative control
Protocol: In Vitro Proof of Concept of HIP Activity. Human pancreatic islet and ductal fractions were cultured over 10 days and then treated in a blinded study. Radioimmunoassay methods were used to measure insulin levels in the human pancreatic cultures treated with a scrambled peptide serving as a negative control, HIP3, HIP1, HIP2 and hamster-derived INGAP serving as a positive control. Peptides were synthesized (95% pure, research grade).
Duplicate cultures were treated in both ductal and islet fractions of human pancreatic tissue on day 10 and day 12 and then lysed for detection of insulin content after 1 week of treatment HIP peptides, control and INGAP. During 10-day culture, the insulin production goes down and then after treatment with HIP peptides, insulin is produced again.
The ductal and islet tissue were separated using the Ricordi method. Neither ductal cell nor islet culture was completely homogeneous in nature. […] The studies were repeated with similar findings shown in the following chart, with as much as a four-fold increase in insulin levels by radioimmunoassay among human ductal tissue cultured with HIP2.
The ductal fraction graph as shown in FIG. 2 depicts the insulin levels on the y axis as measured by radioimmunoassay after incubation in culture with human pancreatic ductal tissue. […]

[5] = 250 μg intraperitoneal twice daily, 28 days

| Compound | glucose levels during the study (NOD mice) | HIP receptor/EXTL3 trafficking from cytoplasmic membrane to nucleus (HIP receptor/EXTL3) | EXTL3 translocation by Western blot (EXTL3) | Total Islet Mass (μm2) [1] | Total Islets [1] | Total Islet Mass (% increase) [1] [%] | Total Islets (% increase) [1] [%] | cell morphology changes through 7 days (PANC-1 cells) | lower mean glucose vs control [3, 5] [%] | total islet numbers vs placebo (significance) [3] | total islet mass vs placebo (significance) [3] | Total Islet Mass (μm2) [3] [μm2] | Total Islets [3] | Total Islet Mass (% increase) [3] [%] | Total Islets (% increase) [3] [%] | islet area [3] | further results |
| --- | --- | --- | --- | --- | --- | --- | --- | --- | --- | --- | --- | --- | --- | --- | --- | --- | --- |
| C[C@@H](O)CCCCn1c(=O)c2c(ncn2C)n(C)c1=O [LSF, lysophylline, reference compound] | gradual elevations in glucose |  |  |  |  |  |  |  |  |  |  |  |  |  |  |  |  |
| Ac-Ile-Gly-Leu-His-Asp-Pro-Thr-Gln-Gly-Thr-Glu-Pro-Asn-Gly-NH2 (Ac-IGLHDPTQGTEPNG-NH2) [HIP2B] | steadily improved glucose levels | stimulated traffic from the HIP receptor on the cytoplasmic membrane into the nucleus | enhancing EXTL3 translocation from the cytoplasmic membrane to the nucleus | 416,715 μm2 | 94 | 398 | 168 | deviate significantly from their initial appearance |  |  |  |  |  |  |  |  | interaction with receptor/EXTL3 and trafficking to nucleus, compared with HIP2 (HIP receptor/EXTL3): as effective as HIP2; rise in the total number of islets compared to placebo-treated mice ([1]; fold): three-fold; islet number (M) ([1]; mean, SD=32.74, placebo M=31.67, p=0.032): 94; islet mass (M) ([1]; mean, SD=121,389.01, placebo M=127410.67, p=0.040): 416714.67; islet size vs placebo-treated mice ([1]; not statistically significant (t=0.708, p=0.518)): normally sized islets were generated; insulin expression after treatment [2]: induced insulin expression in otherwise insulin negative cells; morphological differences vs control on day 7 (PANC-1 cells; 200×, FIG. 9A): histologically more differentiated cells |
| IGLHDPTQGTEPNG [HIP2] | steadily improved glucose levels | stimulated traffic from the HIP receptor on the cytoplasmic membrane into the nucleus | enhancing EXTL3 translocation from the cytoplasmic membrane to the nucleus | 202,955 μm2 | 65 | 143 | 86 | deviate significantly from their initial appearance | 29.4 | significantly increased total islet numbers | significantly greater total islet mass | 2161782 | 454 | 153 | 62 | 360,297 μm(2) | day by which mice were completely insulin-free ([3]; 250 μg intraperitoneal twice daily, 28 days, FIG. 4): ≤ 21 days; increase in insulin levels by radioimmunoassay [4]: four-fold |
| IGLHDPTQGTEPNGE [HIP3] |  |  |  |  |  |  |  |  | 57.3 | significantly increased total islet numbers | significantly greater total islet mass | 1703513 | 410 | 99 | 46 | 283,918 μm(2) |  |
| WIGLHDPTQGTEPNG [HIP1] |  |  |  |  |  |  |  |  | 14.7 |  |  |  |  |  |  |  |  |
